Results as given in ChEMBL document CHEMBL5154828 (J Med Chem, 2022).

Assays:
[1] = Cmax in Sprague-Dawley rat at 10 mg/kg, po measured up to 24 hrs by LC/MS/MS analysis; format: ADME, organism-based; design: time < 24 hrs, dose 10 mg/kg, route po; details: in vivo
[2] = molecular target: Voltage-gated inwardly rectifying potassium channel KCNH2 (Homo sapiens, UniProt Q12809); assay: Inhibition of human ERG potassium channel expressed in CHO cells by patch-clamp assay; format: toxicity, cell-based
Estrogen receptor [3] = molecular target: T1, Estrogen receptor (Homo sapiens, UniProt P03372); assay: Induction of ERalpha degradation in human MCF7 cells incubated for 24 hrs by Western blot analysis; format: cell-based
T1 sequence (P03372 whole entry): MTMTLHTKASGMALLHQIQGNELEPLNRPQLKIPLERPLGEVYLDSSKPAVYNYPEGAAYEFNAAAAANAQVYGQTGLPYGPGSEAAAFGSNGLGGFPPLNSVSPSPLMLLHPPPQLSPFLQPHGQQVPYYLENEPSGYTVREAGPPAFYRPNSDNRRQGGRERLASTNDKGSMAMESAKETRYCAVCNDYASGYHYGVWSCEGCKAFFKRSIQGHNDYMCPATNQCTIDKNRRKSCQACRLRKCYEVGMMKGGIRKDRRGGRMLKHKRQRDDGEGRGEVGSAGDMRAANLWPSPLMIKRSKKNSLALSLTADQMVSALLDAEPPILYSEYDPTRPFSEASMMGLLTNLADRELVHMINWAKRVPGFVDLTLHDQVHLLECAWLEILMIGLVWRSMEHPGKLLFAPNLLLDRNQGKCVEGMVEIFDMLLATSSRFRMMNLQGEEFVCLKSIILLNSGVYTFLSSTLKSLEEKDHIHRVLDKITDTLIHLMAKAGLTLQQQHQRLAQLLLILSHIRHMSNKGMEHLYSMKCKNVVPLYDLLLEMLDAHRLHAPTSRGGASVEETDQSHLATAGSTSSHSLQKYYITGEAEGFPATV

MCF7 = assay: Antiproliferative activity against human MCF7 cells assessed as inhibition of cell growth measured after 6 days by cell titre glo luminescence assay; details: MCF7, 144 h
Estrogen receptor [4] = molecular target: T1, Estrogen receptor; assay: Antagonist activity at ERalpha expressed in HEK293/Gal4 cells incubated for 24 hrs in presence of estradiol by luciferase reporter gene assay; format: cell-based
[5] = AUC (0 to t) in Sprague-Dawley rat at 10 mg/kg, po measured up to 24 hrs by LC/MS/MS analysis; format: ADME, organism-based; design: time < 24 hrs, dose 10 mg/kg, route po; details: in vivo

Sequence of Voltage-gated inwardly rectifying potassium channel KCNH2 (Q12809 whole entry): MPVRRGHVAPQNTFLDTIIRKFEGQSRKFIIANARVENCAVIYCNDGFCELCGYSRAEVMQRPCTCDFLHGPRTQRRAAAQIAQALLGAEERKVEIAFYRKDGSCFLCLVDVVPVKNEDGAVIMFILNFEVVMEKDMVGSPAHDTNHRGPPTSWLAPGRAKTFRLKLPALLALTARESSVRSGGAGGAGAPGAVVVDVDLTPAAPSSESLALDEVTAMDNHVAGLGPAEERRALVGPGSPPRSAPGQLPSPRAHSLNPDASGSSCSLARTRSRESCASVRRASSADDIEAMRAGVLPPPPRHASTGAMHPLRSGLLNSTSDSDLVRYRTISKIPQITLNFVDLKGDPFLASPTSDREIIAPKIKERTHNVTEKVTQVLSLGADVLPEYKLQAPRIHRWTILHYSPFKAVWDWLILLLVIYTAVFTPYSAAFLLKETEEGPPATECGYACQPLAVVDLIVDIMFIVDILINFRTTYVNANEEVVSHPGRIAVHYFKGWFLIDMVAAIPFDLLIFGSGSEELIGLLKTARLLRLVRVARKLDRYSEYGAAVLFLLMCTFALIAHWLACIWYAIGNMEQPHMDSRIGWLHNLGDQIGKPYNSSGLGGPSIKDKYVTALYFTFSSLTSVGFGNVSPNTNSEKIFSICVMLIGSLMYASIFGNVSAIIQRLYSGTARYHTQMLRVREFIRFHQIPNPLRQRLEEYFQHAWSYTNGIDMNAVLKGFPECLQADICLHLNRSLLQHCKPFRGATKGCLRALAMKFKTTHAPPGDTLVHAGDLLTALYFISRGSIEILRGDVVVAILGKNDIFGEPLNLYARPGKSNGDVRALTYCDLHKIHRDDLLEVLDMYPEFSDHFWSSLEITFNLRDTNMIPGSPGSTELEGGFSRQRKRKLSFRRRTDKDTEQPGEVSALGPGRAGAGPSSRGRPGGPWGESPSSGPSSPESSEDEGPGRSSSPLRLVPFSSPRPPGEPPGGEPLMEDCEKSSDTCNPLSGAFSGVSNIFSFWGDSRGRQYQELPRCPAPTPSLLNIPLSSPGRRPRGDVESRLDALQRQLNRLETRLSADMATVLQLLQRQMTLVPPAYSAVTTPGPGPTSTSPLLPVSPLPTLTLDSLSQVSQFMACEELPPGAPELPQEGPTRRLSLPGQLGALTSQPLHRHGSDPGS

CC(F)(F)c1cc(F)c(F)cc1-c1sc2c(ccc3[nH]ncc32)c1Oc1ccc(OC2CN(CCCF)C2)c(F)c1
Cmax [1]: 132 ng/mL | IC50 [2]: > 40000 nM | EC50 (Estrogen receptor [3]): 3.9 nM | IC50 (MCF7): 2.8 nM | IC50 (Estrogen receptor [4]): 5.3 nM | AUC(0-t) at 24 h [5]: 1280 ng·h/mL

CC(F)(F)c1cc(F)ccc1-c1sc2cc(B(O)O)ccc2c1Oc1ccc(OCCN2CC[C@@H](CF)C2)cc1
EC50 (Estrogen receptor [3]): 2.2 nM | IC50 (MCF7): 1.5 nM

CC(F)(F)c1cc(F)ccc1-c1sc2cc(B(O)O)ccc2c1Oc1ccc(OCCN2CCC(F)CC2)cc1
IC50 (MCF7): 19.4 nM

FCC1CN(CCOc2ccc(Oc3c(-c4ccc(OC(F)(F)F)cc4F)sc4c3ccc3[nH]ncc34)cc2)C1
IC50 (MCF7): 38.5 nM

CC(C)(c1cc(F)ccc1-c1sc2c(ccc3[nH]ncc32)c1Oc1ccc(NC2CN(CCCF)C2)cc1)C(F)(F)F
IC50 (MCF7): 5.1 nM

CC(F)(F)c1cc(F)ccc1-c1sc2cc(B(O)O)ccc2c1Oc1ccc(OCCN2CC(CF)C2)cc1
EC50 (Estrogen receptor [3]): 1.2 nM | IC50 (MCF7): 1.9 nM

CC(F)(F)c1cc(Cl)ccc1-c1sc2c(ccc3[nH]ncc32)c1Oc1ccc(OC2CN(CCCC#N)C2)cc1
IC50 (MCF7): 81.4 nM

CC(F)(F)c1cc(F)ccc1-c1sc2c(ccc3[nH]ncc32)c1Oc1ccc(OCCN2CC(CF)C2)cc1
EC50 (Estrogen receptor [3]): 0.9 nM | IC50 (MCF7): 1.1 nM

Cc1cc(F)cc(C)c1-c1sc2c(ccc3[nH]ncc32)c1Oc1ccc(OCCN2CC(CF)C2)cc1
IC50 (MCF7): 27.3 nM

Cc1cc(Cl)cc(C)c1-c1sc2c(ccc3[nH]ncc32)c1Oc1ccc(OCCN2CC(CF)C2)cc1
IC50 (MCF7): 29.5 nM

CC(F)(F)c1cc(F)ccc1-c1sc2c(ccc3[nH]ncc32)c1Oc1ccc(OCCN2CC(CF)C2)cc1F
IC50 (MCF7): 3.3 nM

COc1cc(Oc2c(-c3ccc(F)cc3CC(F)(F)F)sc3c2ccc2[nH]ncc23)ccc1NC1CN(CCCF)C1
EC50 (Estrogen receptor [3]): 2.2 nM | IC50 (MCF7): 1.7 nM | IC50 (Estrogen receptor [4]): 1.1 nM

COc1cc(Oc2c(-c3ccc(F)cc3C(C)(F)F)sc3c2ccc2[nH]ncc23)ccc1OC1CN(CCCF)C1
IC50 [2]: > 40000 nM | EC50 (Estrogen receptor [3]): 0.4 nM | IC50 (MCF7): 0.9 nM | IC50 (Estrogen receptor [4]): 0.6 nM

CC(C)(F)c1cc(F)ccc1-c1sc2c(ccc3[nH]ncc32)c1Oc1ccc(NC2CN(CCCF)C2)cc1
IC50 [2]: 6200 nM

COc1cc(Oc2c(-c3ccc(F)cc3C(C)(C)F)sc3c2ccc2[nH]ncc23)ccc1OC1CN(CCCF)C1
Cmax [1]: 47 ng/mL | IC50 [2]: > 40000 nM | EC50 (Estrogen receptor [3]): 1.4 nM | IC50 (MCF7): 0.5 nM | IC50 (Estrogen receptor [4]): 0.8 nM | AUC(0-t) at 24 h [5]: 264 ng·h/mL

CC(F)(F)c1cc(Cl)ccc1-c1sc2c(ccc3[nH]ncc32)c1Oc1ccc(S(=O)(=O)C2CN(CCCF)C2)cc1
IC50 (MCF7): 33.9 nM

CC(C)(F)c1cc(F)ccc1-c1sc2c(ccc3[nH]ncc32)c1Oc1ccc(OC2CN(CCCF)C2)c(F)c1
IC50 [2]: > 40000 nM

CC(F)(F)c1cc(F)ccc1-c1sc2c(ccc3[nH]ncc32)c1Oc1ccc(COCCN2CC(CF)C2)cc1
EC50 (Estrogen receptor [3]): > 1000 nM | IC50 (MCF7): 4.7 nM

CC(F)(F)c1cc(Cl)ccc1-c1sc2cc(C(=O)O)ccc2c1Oc1ccc(O[C@@H]2CCN(CCCF)C2)cc1
EC50 (Estrogen receptor [3]): 1 nM | IC50 (MCF7): 4.2 nM

CC(F)(F)c1cc(F)ccc1-c1sc2c(ccc3[nH]ncc32)c1Oc1ccc(OC2CN(CCCF)C2)cc1F
IC50 (MCF7): 7.8 nM

CC(F)(F)c1cc(Cl)ccc1-c1sc2c(ccc3[nH]ncc32)c1Oc1ccc(OC[C@H]2CCCN2CCCF)cc1
EC50 (Estrogen receptor [3]): > 1000 nM | IC50 (MCF7): 8.3 nM

COc1cc(Oc2c(-c3ccc(F)cc3C(C)(F)F)sc3c2ccc2[nH]ncc23)ccc1NC1CN(CCCF)C1
IC50 [2]: 11500 nM

CC(F)(F)c1cc(F)ccc1-c1sc2cc3[nH]ncc3cc2c1Oc1ccc(/C=C/C(=O)O)cc1
IC50 (MCF7): 483 nM

CC(F)(F)c1cc(Cl)ccc1-c1sc2cc(C(=O)O)ccc2c1Oc1ccc(NC2CN(CCCF)C2)cc1
EC50 (Estrogen receptor [3]): 13.1 nM | IC50 (MCF7): 5.9 nM

CC(F)(c1cc(F)ccc1-c1sc2c(ccc3[nH]ncc32)c1Oc1ccc(NC2CN(CCCF)C2)cc1)C(F)(F)F (centres undefined)
EC50 (Estrogen receptor [3]): 6.6 nM | IC50 (MCF7): 1.7 nM

FCCCN1CC(Nc2ccc(Oc3c(-c4ccc(F)cc4CC(F)(F)F)sc4c3ccc3[nH]ncc34)cc2)C1
EC50 (Estrogen receptor [3]): 2.2 nM | IC50 (MCF7): 0.8 nM | IC50 (Estrogen receptor [4]): 1.3 nM

CC(F)(F)c1cc(F)ccc1-c1sc2c(ccc3[nH]ncc32)c1Oc1ccc(OCCN2CC3C(C2)C3(F)F)cc1 (centres undefined)
EC50 (Estrogen receptor [3]): > 1000 nM | IC50 (MCF7): 7.6 nM

CC(F)(F)c1cc(F)ccc1-c1sc2c(ccc3[nH]ncc32)c1Oc1ccc(NC2CN(CCCF)C2)c(C(F)(F)F)c1
IC50 (MCF7): 6.2 nM
